Data set [1] deals with delayed type hypersensitivity rat model. The data set is described as follows: Delayed type hypersensitivity rat model (ear induration). The format is in vivo, Lewis rats. Particulars: single injection of PLG depot formulation on day 0, 1,000-40,000 μg/kg; versus daily SC injection in buffer P6N. As to the method:
Therapeutic efficacy of ShK-186 and ShK-192 depot formulations in animal models of autoimmune disease including the delayed type hypersensitivity rat model. Lewis rats are vaccinated by SC administration to the base of the tail with 100 μg ovalbumin mixed 1:1 (v/v) in Complete Freund's Adjuvant (CFA) (OVA/CFA, 200 μL volume) on day 0 using a 20 G×1% needle. Delayed-type hypersensitivity (DTH) is elicited in the ear on Day 7 by injection of 20 μg OVA in 10 μL to the pinna of the ear of isoflurane-anesthetized animals using 29 G×1 needles. DTH is evaluated on Days 8 and 9 by measuring the induration of the site of antigen injection with a micrometer (caliper). Control treatments with ShK-186 or ShK-192 include SC injections of ShK-186 or ShK-192 at 100 μg/kg, 10 μg/kg, 3 μg/kg or 1 μg/kg given on day 0-7 (daily from the initial immunization). The control treatments are compared to a single injection of a depot formulation of ShK-186 or ShK-192 using a PLG polymer-based (in one example, PLG2A) sustained formulations at a dose of 1,000 μg/kg, 5,000 μg/kg, 10,000 μg/kg, 20,000 μg/kg, or 40,000 μg/kg given on day 0 (time of immunization).

Data set [2] can be described thus: In vivo dose response/release of ShK-186 formulated with PLG2A, blood ELISA (Example 5). Also on record: species or system Sprague Dawley rats. As for the experimental part: In vivo dose response of depot formulations using ShK-186 and ShK-192 with PLG2A. Preparation of depot formulations was performed as follows: 1.0 g of PLG2A was dissolved into 5.0 mL dichloromethane with mechanical stirring until the polymer was completely dissolved. A volume of 500 μL including three levels of ShK-186 (40, 20, and 10 mg/mL final concentration; in a 20 mM sodium phosphate aqueous buffer (pH 6.0) with 140 mM NaCl) was added separately into three separate PLG2A preparations and homogenized for 2 minutes with a 10×195 mm probe (26,000 rpm). The w/o emulsion was then poured into a 100 mL Pyrex® 1395 media bottle charged with 20 mL of 0.5% w/w DSS, and 20 mM phosphate (pH 7.0) water solution. The mixture was homogenized for 5 minutes at the same shear setting (26,000 rpm), with the beaker in thermal contact with melting ice (0° C.). The pH of the aqueous (external) phase was verified and adjusted if necessary to 5.0<pH<7.5.
The formulation was then removed from shear, and stirred overnight at room temperature in a fume hood to allow solvent evaporation. The next morning the suspension was filtered through a 325 mesh screen and stored at room temperature with end over end mixing to avoid settling/clumping. Immediately before use by injection, the formulations were centrifuged utilizing the appropriate volume for 8 min, 4° C. at 2,000 g. The solid particles settled to the bottom, allowing for decanting of the almost clear supernatant, followed by replacement of aqueous solution with an appropriate volume and composition (e.g. PBS), followed by mechanical mixing to resuspend the particles.
Sprague Dawley rats (females, ages 8-16 weeks, n=3) were given a SC injection of 1 mL of the indicated depot formulations. Blood was drawn at various time points and assayed for ShK-186 by ELISA methods.
In a repeat experiment, the time during which blood levels of ShK-186 were monitored was extended.

Data set [3] has as its system chronic relapsing/remitting autoimmune encephalomyelitis rat model. The data set is described as follows: Chronic relapsing/remitting autoimmune encephalomyelitis rat model (clinical scoring). Particulars: single injection of PLG2A depot formulation, 1,000-40,000 μg/kg; prevention and treatment models. The format is in vivo, dark agouti rats. As to the method: Therapeutic efficacy of ShK-186 and ShK-192 depot formulations in animal models of autoimmune disease including the chronic relapsing/remitting autoimmune encephalomyelitis rat model. Chronic relapsing/remitting autoimmune encephalomyelitis (CR-EAE) is induced by SC injection of spinal cord homogenate (Bioreclamation, Inc.) and CFA to dark agouti rats (Harlan). Animals typically recover by 30 days after onset of CR-EAE. Rats are treated with different amounts of ShK-186 or ShK-192 (1, 3, 5, 10, and 100 μg/kg) in SC injections daily, every two days, or every three days at different time points prior to and after elicitation of CR-EAE by immunization. These regimens are compared to single injection of depot formulations (ShK-186 or ShK-192 with PLG2A) at doses of 1,000 μg/kg, 5,000 μg/kg, 10,000 μg/kg, 20,000 μg/kg, or 40,000 μg/kg given at the beginning of the experiment (time immunization, prevention model) and after onset of disease, i.e., after a rat has a clinical score of 1 or greater (treatment model).
The efficacy of the treatments is measured by clinical scoring of the severity of CR-EAE in daily and depot formulation-treated rats. […] Subsets of rats are sacrificed at specific time points of the experiment to harvest tissues or to collect whole blood samples.

Data set [4] is described as follows: In vivo release of ShK-192 formulated with PLG2A, blood ELISA (Example 5). The settings on record: PLG2A depot formulation, 10,000 μg/kg, single SC injection, n=3 (FIG. 7). Also noted: species or system Sprague-Dawley rats. As for the experimental part:
The next part of this Example was performed to test formulation and in vivo release of ShK-192 over extended time durations. Similar to the methods used for ShK-186, 1.0 g of PLG2A was dissolved into 5.0 mL dichloromethane with mechanical stirring until the polymer was completely dissolved. A volume of 500 μL including a low dose of ShK-192 (10 mg/mL final concentration; in a 20 mM sodium phosphate aqueous buffer (pH 6.0) with 140 mM NaCl) was formulated by homogenizing for 2 minutes with a 10×195 mm probe (26,000 rpm). The w/o emulsion was then transferred into a 100 mL Pyrex® 1395 media bottle charged with 20 mL of 0.5% w/w DSS, 20 mM phosphate (pH 7.0), water solution.
The mixture was held in thermal contact with ice water (0° C.) and homogenized for 5 minutes at 26,000 rpm, with the final pH of the aqueous (external) phase verified and adjusted to 5.0<pH<7.5. The formulation was then removed from homogenization and mechanically stirred overnight at room temperature in a fume hood to permit solvent evaporation. The next day the suspension was first filtered through a 325 mesh screen, then stored at room temperature with end over end mixing to minimize settling/clumping. Immediately before in vivo use, the formulations were centrifuged utilizing the appropriate volume for 8 minutes, at 4° C. at 2,000 g. […]

With “(L-PhosphoTyr)-AEEAc-RSCIDTIPKSRCTAFQCKHSMKYRLSFCRKTCGTC-amide [ShK-186]”, the “reduction of induration (inflammatory response) in DTH” value in data set [1] was “significant therapeutic effect”. Besides, in data set [2] (40,000, 20,000 and 10,000 μg/kg (FIG. 6)), the “shape of in vivo release profiles across doses” value was “geometrically similar, but scaled by the area under the curve to the total dose”. Also, in data set [2] (single SC dose (1 mL) 20,000 μg/kg, repeat experiment (FIG. 8)), the “duration of sustained in vivo release” value was “at least 56 days”. In addition, in data set [2] (single SC injection, 40,000, 20,000 and 10,000 μg/kg, n=3 (FIG. 6)), the “time blood serum levels are maintained” value is “more than 30 days”. In addition, in data set [3], the “reduction in clinical scores of CR-EAE” value is “significant therapeutic effects”.
For “(Para-phosphono-Phe)-AEEAc-RSCIDTIPKSRCTAFQCKHS(Nle)KYRLSFCRKTCGTC-amide [ShK-192]”, the “reduction of induration (inflammatory response) in DTH” value in data set [1] is on record as “significant therapeutic effect”. For the same substance, in data set [4], the “duration of release from depot formulation” value was “over 30 days” and the “time of maximum concentration” value is approximately 12 days. In addition, the “reduction in clinical scores of CR-EAE” value in data set [3] was “significant therapeutic effects”.
